Test results taken from PubChem BioAssay (NCI).
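Exposure lasted 48 hours, with cells grown in 96-well plates and compounds tested at five concentrations. TGI marks complete inhibition of growth.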

How the values were obtained:
Test in all cases: NCI tumour cell line growth inhibition, 48 h
SK-MEL-5 melanoma = test system: SK-MEL-5 melanoma
M19-MEL melanoma = test system: M19-MEL melanoma
T-47D breast = test system: T-47D breast
HL-60(TB) leukemia = test system: HL-60(TB) leukemia
MDA-N = test system: MDA-N
DMS 273 small cell lung = test system: DMS 273 small cell lung
NCI-H460 lung = test system: NCI-H460 lung
PC-3 prostate = test system: PC-3 prostate
HCT-116 colon = test system: HCT-116 colon
HS 578T breast = test system: HS 578T breast
LOX IMVI melanoma = test system: LOX IMVI melanoma
SN12C renal = test system: SN12C renal
MDA-MB-231 breast = test system: MDA-MB-231 breast
IGROV1 ovarian = test system: IGROV1 ovarian
RPMI-8226 leukemia = test system: RPMI-8226 leukemia
SK-MEL-28 melanoma = test system: SK-MEL-28 melanoma
HCT-15 colon = test system: HCT-15 colon
SNB-78 CNS = test system: SNB-78 CNS
HOP-62 NSCLC = test system: HOP-62 NSCLC
OVCAR-8 ovarian = test system: OVCAR-8 ovarian
HT29 colon = test system: HT29 colon
SK-OV-3 ovarian = test system: SK-OV-3 ovarian
MCF7 breast = test system: MCF7 breast
SNB-19 CNS = test system: SNB-19 CNS
NCI-H226 lung = test system: NCI-H226 lung
DU-145 prostate = test system: DU-145 prostate
KM20L2 colon = test system: KM20L2 colon
OVCAR-4 ovarian = test system: OVCAR-4 ovarian
XF 498 CNS = test system: XF 498 CNS
M14 melanoma = test system: M14 melanoma
RXF-631 renal = test system: RXF-631 renal
ACHN renal = test system: ACHN renal
NCI-H23 lung = test system: NCI-H23 lung
OVCAR-3 ovarian = test system: OVCAR-3 ovarian
HOP-92 NSCLC = test system: HOP-92 NSCLC
NCI-H522 lung = test system: NCI-H522 lung
U251 CNS = test system: U251 CNS
UACC-257 melanoma = test system: UACC-257 melanoma
CAKI-1 renal = test system: CAKI-1 renal
SF-295 CNS = test system: SF-295 CNS
SW-620 colon = test system: SW-620 colon
SR leukemia = test system: SR leukemia
LXFL 529 NSCLC = test system: LXFL 529 NSCLC
OVCAR-5 ovarian = test system: OVCAR-5 ovarian
A498 renal = test system: A498 renal
786-0 renal = test system: 786-0 renal
KM12 colon = test system: KM12 colon
SNB-75 CNS = test system: SNB-75 CNS
BT-549 breast = test system: BT-549 breast
EKVX NSCLC = test system: EKVX NSCLC
RXF 393 renal = test system: RXF 393 renal
TK-10 renal = test system: TK-10 renal
SF-268 CNS = test system: SF-268 CNS
HOP-18 NSCLC = test system: HOP-18 NSCLC
DLD-1 colon = test system: DLD-1 colon
A549 NSCLC = test system: A549 NSCLC
CCRF-CEM leukemia = test system: CCRF-CEM leukemia
SK-MEL-2 melanoma = test system: SK-MEL-2 melanoma
MALME-3M melanoma = test system: MALME-3M melanoma
DMS 114 small cell lung = test system: DMS 114 small cell lung
K-562 leukemia = test system: K-562 leukemia
UACC-62 melanoma = test system: UACC-62 melanoma
MOLT-4 leukemia = test system: MOLT-4 leukemia
UO-31 renal = test system: UO-31 renal
SF-539 CNS = test system: SF-539 CNS
NCI/ADR-RES ovarian = test system: NCI/ADR-RES ovarian
HCC-2998 colon = test system: HCC-2998 colon
MDA-MB-435 = test system: MDA-MB-435
COLO 205 colon = test system: COLO 205 colon

CCOC(=O)CN1C(=O)c2cc([N+](=O)[O-])cc3cc([N+](=O)[O-])cc(c23)C1=O
TGI (SK-MEL-5 melanoma): > 100 µM | TGI (M19-MEL melanoma): > 100 µM | TGI (T-47D breast): > 100 µM | TGI (HL-60(TB) leukemia): 8.99 µM | TGI (MDA-N): > 100 µM | TGI (DMS 273 small cell lung): > 100 µM | TGI (NCI-H460 lung): > 100 µM | TGI (PC-3 prostate): > 100 µM | TGI (HCT-116 colon): > 100 µM | TGI (HS 578T breast): > 100 µM | TGI (LOX IMVI melanoma): > 100 µM | TGI (SN12C renal): > 100 µM | TGI (MDA-MB-231 breast): > 100 µM | TGI (IGROV1 ovarian): > 100 µM | TGI (RPMI-8226 leukemia): > 100 µM | TGI (SK-MEL-28 melanoma): > 100 µM | TGI (HCT-15 colon): > 100 µM | TGI (SNB-78 CNS): > 97.1 µM | TGI (HOP-62 NSCLC): > 100 µM | TGI (OVCAR-8 ovarian): > 100 µM | TGI (HT29 colon): > 100 µM | TGI (SK-OV-3 ovarian): > 100 µM | TGI (MCF7 breast): > 100 µM | TGI (SNB-19 CNS): > 100 µM | TGI (NCI-H226 lung): > 100 µM | TGI (DU-145 prostate): > 100 µM | TGI (KM20L2 colon): > 100 µM | TGI (OVCAR-4 ovarian): > 100 µM | TGI (XF 498 CNS): > 100 µM | TGI (M14 melanoma): > 100 µM | TGI (RXF-631 renal): > 100 µM | TGI (ACHN renal): > 100 µM | TGI (NCI-H23 lung): > 100 µM | TGI (OVCAR-3 ovarian): > 100 µM | TGI (HOP-92 NSCLC): > 100 µM | TGI (NCI-H522 lung): 46.3 µM | TGI (U251 CNS): > 100 µM | TGI (UACC-257 melanoma): > 100 µM | TGI (CAKI-1 renal): > 100 µM | TGI (SF-295 CNS): > 100 µM | TGI (SW-620 colon): > 100 µM | TGI (SR leukemia): 30.7 µM | TGI (LXFL 529 NSCLC): > 100 µM | TGI (OVCAR-5 ovarian): > 100 µM | TGI (A498 renal): > 100 µM | TGI (786-0 renal): > 100 µM | TGI (KM12 colon): > 100 µM | TGI (SNB-75 CNS): > 100 µM | TGI (BT-549 breast): > 100 µM | TGI (EKVX NSCLC): > 100 µM | TGI (RXF 393 renal): 83 µM | TGI (TK-10 renal): > 100 µM | TGI (SF-268 CNS): > 94.6 µM | TGI (HOP-18 NSCLC): > 100 µM | TGI (DLD-1 colon): > 100 µM | TGI (A549 NSCLC): > 100 µM | TGI (CCRF-CEM leukemia): 23.2 µM | TGI (SK-MEL-2 melanoma): > 62.3 µM | TGI (MALME-3M melanoma): > 100 µM | TGI (DMS 114 small cell lung): > 100 µM | TGI (K-562 leukemia): > 100 µM | TGI (UACC-62 melanoma): > 100 µM | TGI (MOLT-4 leukemia): > 64.9 µM | TGI (UO-31 renal): > 100 µM | TGI (SF-539 CNS): 84.3 µM | TGI (NCI/ADR-RES ovarian): > 100 µM | TGI (HCC-2998 colon): > 100 µM | TGI (MDA-MB-435): > 100 µM | TGI (COLO 205 colon): > 100 µM

CNC(=O)CN(CC(=O)O)C(=O)NC
TGI (SK-MEL-5 melanoma): > 100 µM | TGI (M19-MEL melanoma): > 100 µM | TGI (HL-60(TB) leukemia): > 100 µM | TGI (DMS 273 small cell lung): > 100 µM | TGI (LOX IMVI melanoma): > 100 µM | TGI (IGROV1 ovarian): > 100 µM | TGI (RPMI-8226 leukemia): > 100 µM | TGI (HCT-15 colon): > 100 µM | TGI (SNB-78 CNS): > 100 µM | TGI (HOP-62 NSCLC): > 100 µM | TGI (OVCAR-8 ovarian): > 100 µM | TGI (HT29 colon): > 100 µM | TGI (SK-OV-3 ovarian): > 100 µM | TGI (SNB-19 CNS): > 100 µM | TGI (OVCAR-4 ovarian): > 100 µM | TGI (XF 498 CNS): > 100 µM | TGI (M14 melanoma): > 100 µM | TGI (RXF-631 renal): > 100 µM | TGI (ACHN renal): > 100 µM | TGI (NCI-H23 lung): > 100 µM | TGI (OVCAR-3 ovarian): > 100 µM | TGI (HOP-92 NSCLC): > 100 µM | TGI (NCI-H522 lung): > 100 µM | TGI (U251 CNS): > 100 µM | TGI (UACC-257 melanoma): > 100 µM | TGI (CAKI-1 renal): > 100 µM | TGI (SF-295 CNS): > 100 µM | TGI (SW-620 colon): > 100 µM | TGI (SR leukemia): > 100 µM | TGI (LXFL 529 NSCLC): > 100 µM | TGI (OVCAR-5 ovarian): > 100 µM | TGI (A498 renal): > 100 µM | TGI (786-0 renal): > 100 µM | TGI (KM12 colon): > 100 µM | TGI (SNB-75 CNS): > 100 µM | TGI (EKVX NSCLC): > 100 µM | TGI (RXF 393 renal): > 100 µM | TGI (TK-10 renal): > 100 µM | TGI (SF-268 CNS): > 100 µM | TGI (DLD-1 colon): > 100 µM | TGI (A549 NSCLC): > 100 µM | TGI (CCRF-CEM leukemia): > 100 µM | TGI (SK-MEL-2 melanoma): > 100 µM | TGI (MALME-3M melanoma): > 100 µM | TGI (K-562 leukemia): > 100 µM | TGI (UACC-62 melanoma): > 100 µM | TGI (MOLT-4 leukemia): > 100 µM | TGI (UO-31 renal): > 100 µM | TGI (SF-539 CNS): > 100 µM | TGI (HCC-2998 colon): > 100 µM | TGI (COLO 205 colon): > 100 µM
